Test results: patent US7731985B2, “4-aminopyrimidines and their use for the antimicrobial treatment of surfaces” (Ciba Specialty Chemicals Corporation, priority 2002, dated 2010)

What was measured:
Experiment in all cases: MIC in microtitre plates (Example 10)
Type in all cases: cell-based
Parameters in all cases: unit not given here
Conditions in all cases: microtitre plate, 48 hours at 37° C., ≦20% growth
[1] = tested on: Candida albicans ATCC 10231 (=CA)
Description: (§1) Determination of the Minimum Inhibitory Concentration (MIC Value) in Microtitre Plates Casein/soymeal peptone broth for preparation of pre-cultures of test bacteria and yeast Bacteria: • Pseudomonas aeruginosa CIP A-22 (=PA) • Escherichia coli NCTC 8196 (=EC) • Staphylococcus aureus ATCC 9144 (=SA) • Candida albicans ATCC 10231 (=CA) The test substances are pre-dissolved in dimethyl sulfoxide (DMSO) and tested in a dilution series of 1:2. Bacteria and yeast are cultured overnight in CASO broth. All the test organism suspensions are adjusted to an organism count of 1-5×10^6 CFU/ml using […] sodium chloride solution. The test substances are pre-pipetted into microtitre plates in amounts of 8 μl per well. The pre-adjusted organism suspensions are diluted 1:100 in CASO broth and are added in amounts of 192 μl per well to the test substances. The test batches are incubated for 48 hours at 37° C. The incubation, the growth is determined on the basis of the turbidity of the test batches (optical density) at 620 nm in a microplate reader. The minimum inhibitory concentration (MIC value) is the concentration of substance at which (compared to the growth of the control) an appreciable inhibition of growth (≦20% growth) of the test organisms is observed. Three microtitre plates are used for each test organism and substance concentration. All the substances are tested in duplicate.

[2] = tested on: Escherichia coli NCTC 8196 (=EC)
Description: as §1

[3] = tested on: Pseudomonas aeruginosa CIP A-22 (=PA)
Description: as §1

[4] = tested on: Staphylococcus aureus ATCC 9144 (=SA)
Description: as §1

SMILES | MIC CA [1] | MIC EC [2] | MIC PA [3] | MIC SA [4]
NCCN1CCN(c2nc(-c3ccccc3)nc(-c3cccc4ccccc34)c2-c2ccccc2)CC1 [compound 3] | 7.5 | 15 | >120 | 7.5
NCCCCCCCCNc1nc(-c2ccccc2)nc(-c2cccc3ccccc23)c1-c1ccccc1 [compound 4] | 15 | 30 | >120 | 7.5
NCCCCCCCCCCNc1nc(-c2ccccc2)nc(-c2cccc3ccccc23)c1-c1ccccc1 [compound 5] | >120 | >120 | >120 | 7.5
NCCCOCCCCOCCCNc1nc(-c2ccccc2)nc(-c2cccc3ccccc23)c1-c1ccccc1 [compound 6] | >120 | 60 | >120 | 7.5
Fc1ccc(-c2nc(-c3ccccc3)nc(N3CCCNCC3)c2-c2ccccc2)cc1 [compound 7] | 30 | 15 | >120 | 15
NCCCCCCCCCCCCNc1nc(-c2ccccc2)nc(-c2ccc(F)cc2)c1-c1ccccc1 [compound 8] | 120 | 30 | >120 | 30
NCCCOCCCCOCCCNc1nc(-c2ccccc2)nc(-c2ccc(F)cc2)c1-c1ccccc1 [compound 9] | 30 | 15 | >120 | 15
CNCCN(C)c1nc(-c2ccccc2)nc(-c2ccc(C)cc2)c1-c1ccccc1 [compound 10] | 30 | 30 | >120 | 15
Cc1ccc(-c2nc(-c3ccccc3)nc(NCCCCCCN)c2-c2ccccc2)cc1 [compound 11] | 7.5 | 15 | >120 | 7.5
Cc1ccc(-c2nc(-c3ccccc3)nc(NCCCN(C)CCCN)c2-c2ccccc2)cc1 [compound 12] | 7.5 | 3.75 | 7.5 | 7.5
Cc1ccc(-c2nc(-c3ccccc3)nc(NCCOCCOCCN)c2-c2ccccc2)cc1 [compound 13] | 30 | 15 | >120 | 15
Cc1ccc(-c2nc(-c3ccccc3)nc(NCCCN3CCN(CCCN)CC3)c2-c2ccccc2)cc1 [compound 14] | 15 | 3.75 | 30 | 15
Cc1ccc(-c2nc(-c3ccccc3)nc(N3CCC(CCCC4CCNCC4)CC3)c2-c2ccccc2)cc1 [compound 15] | >120 | >120 | >120 | 15
FC(F)(F)c1cccc(-c2nc(-c3ccccc3)nc(N3CCNCC3)c2-c2ccccc2)c1 [compound 16] | 15 | 15 | >120 | 7.5
CNCCN(C)c1nc(-c2ccccc2)nc(-c2cccc(C(F)(F)F)c2)c1-c1ccccc1 [compound 17] | 15 | 30 | >120 | 15
NCCNCCNc1nc(-c2ccccc2)nc(-c2cccc(C(F)(F)F)c2)c1-c1ccccc1 [compound 18] | 60 | 30 | 120 | 30
NCCN1CCN(c2nc(-c3ccccc3)nc(-c3cccc(C(F)(F)F)c3)c2-c2ccccc2)CC1 [compound 19] | 8 | 15 | >120 | 7.5
NCCCCCCCCNc1nc(-c2ccccc2)nc(-c2cccc(C(F)(F)F)c2)c1-c1ccccc1 [compound 20] | 15 | 30 | >120 | 15

SMILES | MIC CA [1] | MIC EC [2] | MIC PA [3] | MIC SA [4]
CN(CCCN)CCCNc1nc(-c2ccccc2)nc(-c2cccc(C(F)(F)F)c2)c1-c1ccccc1 [compound 21] | <3.75 | <3.75 | 7.5 | 7.5
NCCOCCOCCNc1nc(-c2ccccc2)nc(-c2cccc(C(F)(F)F)c2)c1-c1ccccc1 [compound 22] | 7.5 | 15 | >120 | 15
NCCCN1CCN(CCCNc2nc(-c3ccccc3)nc(-c3cccc(C(F)(F)F)c3)c2-c2ccccc2)CC1 [compound 23] | 7.5 | 7.5 | 30 | 15
COc1cccc(-c2nc(-c3ccccc3)nc(NCCCN(C)CCCN)c2-c2ccccc2)c1 [compound 24] | 30 | 15 | 30 | 30
COc1cccc(-c2nc(-c3ccccc3)nc(NCCCN3CCN(CCCN)CC3)c2-c2ccccc2)c1 [compound 25] | 120 | 60 | >120 | >120
CNCCN(C)c1nc(-c2ccccc2)nc(-c2ccccc2OC)c1-c1ccccc1 [compound 26] | >120 | 60 | >120 | 60
COc1ccccc1-c1nc(-c2ccccc2)nc(N2CCN(CCN)CC2)c1-c1ccccc1 [compound 27] | 60 | 30 | >120 | 30
COc1ccccc1-c1nc(-c2ccccc2)nc(N2CCC(CCCC3CCNCC3)CC2)c1-c1ccccc1 [compound 28] | >120 | >120 | >120 | <3.75
NCCCCCCCCCCCCNc1cc(-c2cccc3ccccc23)ncn1 [compound 29] | 30 | 30 | >120 | 15
FC(F)(F)c1cccc(-c2cc(N3CCC(CCCC4CCNCC4)CC3)ncn2)c1 [compound 30] | 15 | 30 | >120 | 60
CCCNc1cc(C)nc(-c2cccnc2)n1 [compound 31] | 120 | >120 | >120 | 60
CCCCNc1cc(C)nc(-c2cccnc2)n1 [compound 32] | 60 | 120 | >120 | 60
CCCCCCNc1cc(C)nc(-c2cccnc2)n1 [compound 33] | 60 | >120 | >120 | 30
CCCCCCCCNc1cc(C)nc(-c2cccnc2)n1 [compound 34] | 30 | 120 | >120 | 7.5
CCCCCCCCCCCNc1cc(C)nc(-c2cccnc2)n1 [compound 35] | 30 | 30 | 120 | 15
CCCCCCCCCCCCNc1cc(C)nc(-c2cccnc2)n1 [compound 36] | 7.5 | 15 | 60 | 7.5
CCCCCCCCCCCCCNc1cc(C)nc(-c2cccnc2)n1 [compound 37] | 7.5 | 15 | >120 | 7.5
